“And” between values parts separate entries of the source, which are not always exact repeats. Equal entries are not always repeated.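 1) Cells in 96-well plates. 2) Compound, 48 h, 5 concentrations. 3) Linear interpolation between surrounding doses. 4) Unreached endpoint = highest concentration. GI50 is the concentration that inhibits growth by half. TGI: total growth inhibition.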 Where a SMILES comes first, the peptide text is derived from it. [ ]: non-standard residue; d: D form. Orn = NCCC[CH](N)C(=O)O
System: MDA-MB-468 breast
Assay: NCI anticancer screen, dose series, 48 h

SMILES | GI50 | TGI
CCOC(=O)c1c2c(n3cccc(F)c13)C(=O)c1ncccc1C2=O | 2870 nM | 9680 nM
COc1ccc(-c2oncc2-c2cc(OC)c3c(c2)OCO3)cc1 | 1350 nM | > 29700 nM
Fc1ccc(-c2cc3nc(C(Cl)Cl)nc(-c4ccccc4)n3n2)cc1 | 269 nM | 869 nM
C#CCOc1c(OC)cc(C(=O)/C(C)=C/c2cccc(N=[N+]=[N-])c2)cc1OC | 85.5 nM | > 100000 nM
O=C(O)c1cn(C2CC2)c2cc(N3CCN(C(=O)Nc4nc(-c5ccc(Cl)cc5)cs4)CC3)c(F)cc2c1=O | 1750 nM | 8150 nM
CCN1C(=O)N(CC)C2C1NN=C1SC(c3ccccc3)=CC(=O)N12 (configuration not stated) | 231 nM | 867 nM
O=C1C=CC(=O)N1CCCCCCCCCCN1C(=O)C=CC1=O | 3220 nM | 14000 nM
Cc1cc(Cl)ccc1Nc1nc(C(F)(F)F)ccc1C(=O)N/N=C/c1c(Cl)cccc1Cl | 274 nM | 842 nM
O=CNc1ccc2c(c1)Cc1cc([N+](=O)[O-])ccc1-2 | 1880 nM | > 100000 nM
CCOCC[P+](c1ccccc1)(c1ccccc1)c1ccccc1 | 2620 nM | 24900 nM
Cc1ccc(C2CC(c3cccc(Nc4ccncc4)c3)=NN2c2ccc(Cl)cc2)cc1 (configuration not stated) | 1670 nM | 3250 nM
CCC1=C[C@H]2CN(CCc3c([nH]c4ccccc34)[C@@](C(=O)OC)(c3cc4c(cc3OC)N(C)[C@H]3[C@@](O)(C(=O)OC)[C@H](OC(C)=O)[C@]5(CC)[C@@H]6C[C@@H]6CN6CC[C@]43[C@@H]65)C2)C1 | 14.5 nM | 6590 nM
COc1cc(C2c3cc4c(cc3OC(O)C2C)OCO4)cc(OC)c1O (configuration not stated) | 10600 nM | > 100000 nM
COc1ccc2c(c1)N(CCO)C1=C(C(=O)OC1)C2c1cccc(Br)c1 (configuration not stated) | 28.7 nM | 128 nM
COc1ccc(/C=C/C(=O)c2ccc(NC(=O)CSc3nnc(-c4cc(OC)c(OC)c(OC)c4)o3)cc2)cc1 | 2100 nM | 5020 nM
CCN1CCN(Cc2ccc3cc(C(=O)Nc4cc(NC(=O)c5ccc6c(c5)OCCO6)ccc4F)ccc3n2)CC1 | 33.5 nM | 181 nM
N=C(N)c1ccc(-c2ccc(-c3ccco3)o2)cc1F | 1570 nM | 3410 nM
O=C(Nc1cccc(-n2cc(-c3ccncc3)c(-c3ccc(O)c(Cl)c3)n2)c1)Nc1ccc(Cl)c(C(F)(F)F)c1 | 2190 nM | 6840 nM
COc1cc([C@@H]2c3cc4c(cc3[C@H](O)[C@H]3COC(=O)[C@@H]23)OCO4)cc(OC)c1OC | 278 nM and 54.8 nM | 2870 nM and 453 nM
COC(=O)c1cccc(NC2=C(Cl)C(=O)c3nc(C)ccc3C2=O)c1 | 1610 nM | 3280 nM
Cc1cccc2c(=O)c3c(sc12)c(NCCN)nc1ccccc13 | 700 nM | 1580 nM
CCCNNC(=O)c1ccc(CNC(=O)/C=C/c2ccccc2)cc1 | 311 nM | > 31100 nM

SMILES | GI50 | TGI
C#Cc1cc(OC)c(C(=O)Nc2ccc(F)cc2C(=O)Nc2cccc(S(=O)(=O)C(F)(F)F)c2)cn1 | 1510 nM | 3990 nM
Cc1ccc(S(=O)(=O)N2C/C(=C\c3cc(F)cc(F)c3)C(=O)/C(=C/c3cc(F)cc(F)c3)C2)cc1 | 385 nM | 1760 nM
CCOC(=O)C1=C(N)Oc2cc(OC)ccc2C1c1ccc(F)c(F)c1 (configuration not stated) | 352 nM | 4000 nM
O=C(Nc1ncc(Cc2ccc(Cl)cc2)s1)c1ccc2c(c1)OCCO2 | 258 nM | 
Cc1cc(Cl)ccc1Nc1nc(C(F)(F)F)ccc1C(=O)N/N=C/c1ccc(F)cc1 | 706 nM | 3260 nM
C#Cc1ccc(-n2c(/C=C/c3ccc4ccccc4n3)nc3ncccc3c2=O)cc1 | 232 nM | 894 nM
COC(C(=O)[C@@H](O)[C@@H](C)O)[C@@H]1Cc2cc3cc(O[C@H]4C[C@@H](O[C@H]5C[C@@H](O)[C@H](O)C(C)O5)[C@H](O)C(C)O4)c(C)c(O)c3c(O)c2C(=O)[C@H]1O[C@H]1C[C@@H](O[C@H]2C[C@@H](O[C@H]3C[C@@H](O)[C@@H](O)C(C)O3)[C@@H](O)C(C)O2)[C@H](O)C(C)O1 (some centres not stated) | 396 nM | 4090 nM
Cn1cc(C2=C(c3cccc(NCC(O)CO)c3)C(=O)NC2=O)c2cc(Cl)ccc21 (configuration not stated) | 2110 nM | 8430 nM
Clc1cccc(Cc2cn3cc(-c4ccccc4)nc3s2)c1 | 4450 nM | > 100000 nM
CCN(CC)CCCC(C)Nc1ccnc2cc(Cl)c(SCc3ccccc3)cc12 (configuration not stated) | 1230 nM | 2570 nM
N=C1N=Nc2nc(C3(c4nc5n(c4O)C(=N)N=N5)Cc4ccccc4C3=O)c(O)n21 (configuration not stated) | 49800 nM | > 100000 nM
N=c1c2c(=O)n3c(nc2nc2sc4ccc(Cl)cc4n12)-c1ccccc1Sc1ccccc1-3 | 2670 nM | 12400 nM
CN(C)CCOc1cccc(NC2=C(Cl)C(=O)C(Nc3cccc(OCCN(C)C)c3)=C(Cl)C2=O)c1 | 181 nM | 358 nM
COc1ccc2oc(-c3ccc(Cl)cc3)c(N3CCN(C)CC3)c2c1 | 1660 nM | 4310 nM
Cc1ccc(S(=O)(=O)C2=C3C(=C(c4ccccc4)c4ccccc43)CN(S(=O)(=O)c3ccc(C)cc3)C2)cc1 | 5010 nM | 40600 nM
CC(=O)/C=C/c1ccc(N(C)Cc2ccc(C(C)(C)C)cc2)cc1 | 59700 nM | 215000 nM
O=C(Nc1cccc2ccccc12)c1cc2ccccc2cc1O | 2450 nM | 6330 nM
COc1cccc(-c2cc(NCc3ccc4c(c3)OCO4)nc(N)n2)c1 | 220 nM | 15100 nM
COc1ccc(/C=C2\CCCC3=C2N=C2SC=NN2C3c2ccc(OC)c(OC)c2)cc1OC (configuration not stated) | 2180 nM | 25300 nM
NNc1nc(-c2ccccn2)nc2sc3c(c12)CCCCCC3 | 3670 nM | 31700 nM
CC(C)CC1NC(=O)C(CCCN)NC(=O)C(C(C)C)NC(=O)C2CCCN2C(=O)C(Cc2ccccc2)NC(=O)C(CC(C)C)NC(=O)C(CCCN)NC(=O)C(C(C)C)NC(=O)C2CCCN2C(=O)C(Cc2ccccc2)NC1=O (configuration not stated) (cyclo(FPV[Orn]LFPV[Orn]L); configuration not given here) | 3.94 nM | 22.2 nM and 26.8 nM
CCNCCNc1cc(C2CCCC2)c(C#N)c2nc3ccccc3n12 | 1640 nM | 3670 nM

Reference: PubChem BioAssay (NCI)
